# Earlier results in patent US7217431B2, “Controlled agglomeration” (LifeCycle Pharma A/S, priority 2001, dated 2007).
# Where two headings read alike, the source gives them in different places.
Structure (SMILES),"Bioavailability (Table 2, in words)",Bioavailability (in vivo)
COc1ccc(CCN2CCC(Nc3nc4ccccc4n3Cc3ccc(F)cc3)CC2)cc1 [Astemizole],Low–moderate,
CC(=O)OC[C@H]1O[C@@H]([S-])[C@H](OC(C)=O)[C@@H](OC(C)=O)[C@@H]1OC(C)=O.CCP(CC)CC.[Au+] [Auranofin],,Low (15–25%)
C#C[C@]1(O)CC[C@H]2[C@@H]3CCC4=Cc5oncc5C[C@]4(C)[C@H]3CC[C@@]21C [Danazol],Low,

# The next lines start with results.
"Bioavailability (Table 2, in words)",Structure (SMILES),Bioavailability (in vivo)
Low,CC1CC(OC(=O)C(O)c2ccccc2)CC(C)(C)C1 (centres unmarked) [Cyclandelate],
Low,OCCN1CCN(CCCN2c3ccccc3Sc3ccc(Cl)cc32)CC1 [Perphenazine],
